In patent US20230071574A1, “ANTI-HAIR LOSS AND HAIR GROWTH INTEGRATED CORE-SHELL MICRONEEDLE PATCH” (Tangyi Holdings (Shenzhen) Limited, priority 2021, published 2023):

Test system: mouse models with androgenic hair loss
Experiment: Therapeutic effect of microneedle patches in mouse models with androgenic hair loss built by topical testosterone
Format: in vivo
Settings: testosterone-induced androgenic hair loss mice; patches used 15 days, replaced every three days; Minoxidil solution applied daily for 13 days
Description: The therapeutic effect of the anti-hair loss and hair growth integrated core-shell microneedle patch is tested, the mouse models with androgenic hair loss are built by topical administration of testosterone solution every day for 28 days, five groups of mouse models with androgenic hair loss are used to test the effect of the microneedle patch, one of the groups is a model group to which only testosterone solution is applied, the blank microneedle patch, the nano-enzyme microneedle patch (prepared in Comparative Example 1) and the core-shell microneedle patch (prepared in Embodiment 1) are used on the other three groups of mouse models with androgenic hair loss respectively, the patches are used for 15 days and replaced every three days, a Minoxidil solution is used for the last group and applied every day for 13 consecutive days. The measurement results are shown in Table 1, and the therapeutic effect of the anti-hair loss and hair growth integrated core-shell microneedle patch is judged by scoring the hair diameter, percentage of Ki67 positive cells and hair cycle.

Nc1cc(N2CCCCC2)nc(N)[n+]1[O-] [Minoxidil]
Hair cycle score: 22
Hair diameter: 11 μm
Ki67 positive cells: 20%
